Reference: patent US11613753B2, “Methods and pharmaceutical compositions for treating tubulin carboxypeptidases associated diseases” (LES LABORATOIRES SERVIER, priority 2017, dated 2023)
“Also recorded” adds a separate entry of the source.

Molecular target: T1, brain TCP (fraction IV) (Mus musculus, UniProt Q8C1W1)
T1 construct: from tissue; host or cells: adult mouse brain, fraction IV (ammonium sulfate cut, Hitrap Q XL flow-through, Hitrap SP XL eluate)
T1 sequence (Q8C1W1 1-375): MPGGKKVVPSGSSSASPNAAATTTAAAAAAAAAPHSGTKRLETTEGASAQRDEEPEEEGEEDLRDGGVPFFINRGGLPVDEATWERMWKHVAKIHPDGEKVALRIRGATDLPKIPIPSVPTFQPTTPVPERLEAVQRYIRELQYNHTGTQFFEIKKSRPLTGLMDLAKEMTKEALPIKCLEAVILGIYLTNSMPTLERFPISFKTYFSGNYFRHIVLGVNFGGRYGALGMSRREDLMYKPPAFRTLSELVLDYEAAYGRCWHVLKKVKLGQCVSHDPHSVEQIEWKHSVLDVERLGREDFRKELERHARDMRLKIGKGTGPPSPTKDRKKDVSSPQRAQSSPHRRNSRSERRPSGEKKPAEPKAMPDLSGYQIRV
T1 sequence (Q99LQ4 1-66 partner): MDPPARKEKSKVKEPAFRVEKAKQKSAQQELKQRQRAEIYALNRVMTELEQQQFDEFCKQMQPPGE
Test: TCP activity assay, radioactivity test with [14C]-tyrosinated taxol-stabilized microtubules, on enriched brain fraction IV
Type: biochemical
Details: FIG. 1B
Procedure: Preparation of tyrosinated tubulin and microtubule, and EB1. Bovine brain tubulin (12 mg/mL, prepared as in (S. Ramirez-Rios et al., (2016) Molecular biology of the cell 27, 2924) was tyrosinated by incubation for 45 min at 30° C. with purified chicken TTL (1 mg/mL, gift from Steinmetz group) and 0.1 mM L-tyrosine or [14C]-L-tyrosine (0.125 μCi/mole) in 40 mM Pipes at pH 6.7, 60 mM KCl, 2.5 mM ATP, 1 mM DTT, 12.5 mM MgCl2. Microtubules polymerization was allowed by one-third dilution in 100 mM PIPES at pH 6.7. 1 mM EGTA, 1 mM MgCl2, 30% glycerol, 1 mM GTP and incubation at 32° C. for 45 min, followed by another 45 min incubation with 50 μM Paclitaxel (Calbiochem). Microtubules were sedimented by 25 min centrifugation at 100,000 g and 30° C. on 60% glycerol cushions. TTL-containing supernatant was discarded and tyrosinated-microtubules were resuspended in 100 mM PIPES at pH 6.7, 1 mM EGTA, 1 mM MgCl2, 10% glycerol, 80 μM paclitaxel and stored at −20° C. To obtain unpolymerized tyrosinated-tubulin, paclitaxel was omitted during the whole procedure. EB1 was prepared as in S. Ramirez-Rios et al., (2016) Molecular biology of the cell 27, 2924.
TCP activity assays. In radioactivity tests using [14C]-tyrosinated taxol-stabilized microtubule, enzyme activity was measured in 100 mM MES at pH 6.7. 1 mM EGTA and 1 mM MgCl2 using 2 μM radiolabeled tubulin, except in FIGS. 2D and S2D (as indicated in legend). Reactions were performed for 45 min at 37° C. (without or with previous incubation with inhibitors, see legends) and were stopped on ice by addition of 20 μg/ml bovine serum albumin and 10% perchloric acid and centrifugation. Tyrosine cleaved from microtubules was estimated by measuring radioactivity in the supernatant (a zero time control was subtracted). To compose the table of Fig. S1A, detyrosination activity from equal volumes of the various fractions was measured. In tests with inhibitors, detyrosination activity was tested after a 20 min preincubation with inhibitor (except in Figs. S2C and S2) where varying time of incubation were used as indicated in legend), and results with inhibitors were expressed as percentage of the activity in the control with corresponding solvent. In tests using Western-blots, enzyme activity was assayed with 5 μM substrates (taxol-stabilized microtubule, tubulin or EB1) in 100 mM MES at pH 6.7. Positive controls were done with carboxypeptidase A (2 ng/mL). Reactions were stopped by addition of Laemmli buffer. A reaction with carboxypeptidase A (CPA), which efficiently cleaves aromatic and aliphatic C-terminal residues, was used as positive control. In tests using VASH/SVBP complexes purified on cobalt resin from HEK293T cells, enzymes concentration were approximated from in-gel Coomassie-blue staining of purified VASH1 and VASH2 together with standards of bovine serum albumin.
Enzyme enrichment. We designed a three-step purification procedure from brain lysate inspired from previous efforts (N. Kumar, M. Flavin, (1981) The Journal of biological chemistry 256, 7678; C. E. Argarana, H. S. Barra, R. Caputto, (1980) Journal of neurochemistry 34, 114). All steps were carried out at 4° C. Adult mice brains were homogenized in 50 mM phosphate buffer at pH 6.7, 1 mM EGTA, 1 mM MgCl2, 1 μg/ml DNAse with a protease inhibitor cocktail (cOmplete EDTA-free, Roche) and centrifuged 1 h at 100.000 g. The supernatant was collected (Fraction 1). In step 1 (ammonium sulfate fractionation), Fraction 1 was slowly brought to 45% ammonium sulfate, incubated for 15 min and centrifuged 20 min at 15,000 g. Resulting supernatant underwent the same procedure at 65% ammonium sulfate. The pellet was re-suspended in one-eighth of initial volume with 50 mM MES pH 6.7, 1 mM EGTA, 1 mM MgCl2 and desalted using Bio-Gel P30 (Bio-Rad) equilibrated with the same buffer (Fraction 11). […]

| IC50, inhibition of TCP activity (20 min preincubation with inhibitor) | IC50 (20 min preincubation with inhibitor, read-out: IC50, inhibition of TCP activity) | SMILES | Inhibition of brain TCP activity (in words) |
| --- | --- | --- | --- |
| – | – | NCCc1ccc(S(=O)(=O)F)cc1 [AEBSF] | inhibited |
| 300 µM | – | CC(C)C[C@H](NC(=O)[C@H]1O[C@@H]1C(=O)O)C(=O)NCCCCN=C(N)N [E-64] | inhibited; also recorded: modest inhibitory activity |
| – | ~0.5 µM | CCOC(=O)[C@H]1O[C@@H]1C(=O)N[C@@H](Cc1ccc(O)cc1)C(=O)O [EpoY] | most potent inhibitor |
| – | – | CCN1C(=O)C=CC1=O [N-Ethylmaleimide] | inhibited |
